Measured values as given in BindingDB's records for PubMed 37116763 (n/a, 2023).

Each molecule was assayed against T1, Nuclear factor erythroid 2-related factor 2 (Homo sapiens, UniProt Q16236) (assay: Activation of Nrf2 in human IMR-32-ARE-Luc cells by Bright-Glo luciferase assay).
T1 sequence (Q16236 whole entry): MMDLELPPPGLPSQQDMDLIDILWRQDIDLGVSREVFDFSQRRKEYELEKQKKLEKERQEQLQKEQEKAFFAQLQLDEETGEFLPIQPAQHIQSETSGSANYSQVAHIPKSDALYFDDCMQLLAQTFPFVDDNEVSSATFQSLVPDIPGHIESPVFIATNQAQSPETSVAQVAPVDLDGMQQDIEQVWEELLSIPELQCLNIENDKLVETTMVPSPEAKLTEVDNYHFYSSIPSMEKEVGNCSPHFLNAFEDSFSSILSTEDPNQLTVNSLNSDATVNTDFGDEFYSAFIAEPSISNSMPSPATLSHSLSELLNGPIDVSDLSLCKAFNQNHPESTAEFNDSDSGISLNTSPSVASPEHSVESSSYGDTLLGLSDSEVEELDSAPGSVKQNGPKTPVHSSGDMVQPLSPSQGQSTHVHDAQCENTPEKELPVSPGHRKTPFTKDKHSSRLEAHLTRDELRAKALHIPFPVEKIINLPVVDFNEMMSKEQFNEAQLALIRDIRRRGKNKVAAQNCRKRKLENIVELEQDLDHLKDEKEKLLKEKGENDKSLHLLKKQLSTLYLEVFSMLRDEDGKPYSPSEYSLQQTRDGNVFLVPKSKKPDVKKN

EC50, > 20 µM:
CC(C)CN[C@H]1CS(=O)(=O)C[C@@H]1C(=O)Nc1ccc(Cl)c(Cl)c1
O=C(O)CCCN[C@H]1CS(=O)(=O)C[C@@H]1S(=O)(=O)c1ccc(Cl)c(Cl)c1
O=C(O)CCCCCN[C@H]1CS(=O)(=O)C[C@@H]1S(=O)(=O)c1ccc(Cl)c(Cl)c1
